Reference: US20260364072A1, “METHODS FOR PROMOTING EXPANSION OF HUMAN CD34+ CELLS IN VIVO AND FOR PROMOTING NEURAL REGENERATION” (THE REGENTS OF THE UNIVERSITY OF CALIFORNIA, priority 2023, published 2026)

Columns and labels:
[1] = system: human CD45+ADAR1-GFP+ cells and CD45+CD3+ADAR1-GFP+ cells; assay: aNBM SAK378 PDX mice, flow cytometry; type: in vivo, human cells in NSG-SGM3 mice; conditions: 10 mg/kg, IV, BIW×2
Method: Aged normal bone marrow (aNBM) PDX mouse models SAK378 were established with 80-100K ADAR1-reporter transduced CD34+ cells by IV injection into NSG-SGM3 mice at the age of 5-6 weeks. When the models were ready, the mice were treated with either vehicle or rebecsinib (10 mg/kg, IV, BIW×2). The mice were sacrificed upon completion of the dosing plan, and single cells from PB, SP, and BM were collected and stained with mAbs for CD45, CD3, CD14, and CD19.

[2] = system: RBL-1 leukemia cells (Sf3b family members); assay: Splice isoform biomarker qRT-PCR in rat RBL-1 leukemia cells; type: cell-based; conditions: 1 μM, 4 hr; different lots of Rebecsinib
Method: For quantitative analysis of splice isoform expression, RNA editing rates, and whole gene expression by qRT-PCR, cells or tissue fragments were harvested in RNA lysis buffer and total RNA was extracted using RNeasy mini or micro extraction kits (QIAGEN, Germantown, MD) following the manufacturer's protocol including a DNase incubation step to digest any trace genomic DNA present. Levels of ADAR1 variants and LSC-specific transcripts were quantified by qRT-PCR as previously described.^14 RNA-editing site-specific qRT-PCR (RESSqPCR) was performed for variants in AZIN1 transcripts.^53 Additional species-specific primers were also designed to quantify intron retention rates in cells treated with Rebecsinib as a biomarker of response to RNA splicing modulation. […] Relative mRNA expression values were calculated using the 2^−ΔCT method, with normalization to untreated or vehicle-treated controls.^54
For multi-species biomarker development and transcript variant-specific qRT-PCR experiments, human AML cell lines KG-1a, MOLM-13, and HL-60, and rat leukemia cells RBL-1 were grown to confluence and treated with 1 μM Rebecsinib for 4 hr. Cells were collected and lysed in Qiagen RNA lysis buffer, and analyzed using the species-specific primers and qRT-PCR procedures described above.

CC[C@H](OC)[C@@H](C)[C@H]1O[C@@H]1[C@@H](O)[C@H](C)/C=C/C=C(\C)[C@H]1OC(=O)C[C@H](O)CC[C@@](C)(O)[C@@H](OC(C)=O)/C=C/[C@@H]1C [Rebecsinib]
CD45+CD3+GFP+ cells in PB, SP, and BM [1]: spares the cell populations
CD45+GFP+ cells in PB, SP, and BM [1]: spares the cell populations
intron retention in Sf3b family members [2]: rapidly induced
